Measured values from patent US6946458B2, “N-thiolated beta-lactams: novel antibacterial agents for methicillin-resistant Staphylococcus aureus” (University of South Florida, priority 1999, dated 2005).

Assays:
MRSA USF652 = assay: Kirby-Bauer agar disk diffusion; type: cell-based, Staphylococcus aureus; conditions: 6-mm disks, 20 μg test compound
Description: (§1) In this study, a selection of N-methylthio-substituted β-lactams are examined for antimicrobial activity by the Kirby-Bauer disk diffusion method on agar plates. A variety of common Gram-positive and Gram-negative bacteria are tested, including clinical isolates of methicillin-resistant Staphylococcus aureus (MRSA).
(§2) Compound susceptibility measurements are obtained from agar disk diffusion experiments using 6-mm air-dried disks impregnated with 20 μg of the test compound. The values correspond to the average diameters in mm (triplicate experiments) for the zone of growth inhibition observed after 24 h. Staphylococcus aureus (ATCC 25923) and β-lactamase-producing strains of methicillin-resistant Staphylococcus aureus (labeled as MRSA USF652-659) are obtained from Lakeland Regional Medical Center, Lakeland, Fla. Staphylococcus epidermidis, Staphylococcus simulans, Staphylococcus simulans, and Microcossus luteus are clinical isolates from University of South Florida Medical Clinic. Nieserria gonnorhoeae (β-lactamase positive) is obtained from the Tampa Branch State Laboratory. PenG is penicillin G (potassium salt). Table 1 provides the zones of growth inhibition that are observed after 24 hours using the lactams of FIGS. 1A-1I (designated A-I, respectively).
(§3) Of particular interest is the ability of these compounds to retain their effectiveness against penicillin-resistant strains of Staphylococcus aureus, a dangerous hospital-borne pathogen which is becoming difficult to treat with conventional antibiotic therapy. The lactams were screened for antibacterial activity by disk diffusion on agar plates, and the resulting zones of bacterial growth inhibition measured (see Table 3; each lactam is designated by Figure number).
(§4) Table 3: Growth inhibition zones obtained from agar disk diffusion experiments using 6-mm air-dried disks impregnated with 20 μg of the test compound. The values correspond to the average diameters in mm for the zone of growth inhibition observed after 24 hours. Staphylococcus aureus and β-lactamase-producing strains of methicillin-resistant Staphylococcus aureus (labeled MRSA USF652-659) are obtained from a clinical testing laboratory at Lakeland Regional Medical Center, Lakeland, Fla.
(§5) Those compounds were tested for bioactivity using the Kirby-Bauer test on agar plates.
(§6) Biological activity is enhanced against β-lactamase producing strains of methicillin-resistant Staphylococcus aureus (MRSA). With the lactam shown in FIG. 11A serving as a lead structure, a series of other C-4 substituted derivatives (FIGS. 11B-11I) were investigated herein. Table 5 lists microbiological data for β-lactams from Kirby-Bauer Disc Diffusion Test Results (with each lactam identified by Figure number).
(§7) Scheme I summarizes the synthesis of ester compounds 4. 4-Carboxy benzaldehyde (1) is coupled with the appropriate alcohol using DCC/DMAP, followed by reaction with p-anisidine, to give imines 2. Staudinger coupling of methoxyacetyl chloride with imine 2 gives N-aryl protected β-lactam 3. N-Dearylation of β-lactam 3 with ceric ammonium nitrate and methylthiolation with N-(methylthio)phthalimide affords N-methylthio β-lactams 4. These compounds are tested for antibacterial activity by the Kirby-Bauer method of disc diffusion on agar plates. [drawing 7]

MRSA USF653 = assay: Kirby-Bauer agar disk diffusion; type: cell-based, Staphylococcus aureus; conditions: 6-mm disks, 20 μg test compound
Description: as §1, §2, §3, §4, §5, §6, §7

MRSA USF654 = assay: Kirby-Bauer agar disk diffusion; type: cell-based, Staphylococcus aureus; conditions: 6-mm disks, 20 μg test compound
Description: as §1, §2, §3, §4, §5, §6, §7

MRSA USF655 = assay: Kirby-Bauer agar disk diffusion; type: cell-based, Staphylococcus aureus; conditions: 6-mm disks, 20 μg test compound
Description: as §1, §2, §3, §4, §5, §6, §7

MRSA USF656 = assay: Kirby-Bauer agar disk diffusion; type: cell-based, Staphylococcus aureus; conditions: 6-mm disks, 20 μg test compound
Description: as §1, §2, §3, §4, §5, §6, §7

MRSA USF657 = assay: Kirby-Bauer agar disk diffusion; type: cell-based, Staphylococcus aureus; conditions: 6-mm disks, 20 μg test compound
Description: as §1, §2, §3, §4, §5, §6, §7

MRSA USF658 = assay: Kirby-Bauer agar disk diffusion; type: cell-based, Staphylococcus aureus; conditions: 6-mm disks, 20 μg test compound
Description: as §1, §2, §3, §4, §5, §6, §7

MRSA USF659 = assay: Kirby-Bauer agar disk diffusion; type: cell-based, Staphylococcus aureus; conditions: 6-mm disks, 20 μg test compound
Description: as §1, §2, §3, §4, §5, §6, §7

Micrococcus luteus = assay: Kirby-Bauer agar disk diffusion; type: cell-based; conditions: 6-mm disks, 20 μg test compound
Description: as §1, §2, §3, §4

[1] = tested on: Staphylococcus aureus (ATCC 25923); assay: Kirby-Bauer agar disk diffusion; type: cell-based; conditions: 6-mm disks, 20 μg test compound
Description: as §1, §2, §3, §4

[2] = tested on: Staphylococcus epidermidis; assay: Kirby-Bauer agar disk diffusion; type: cell-based; conditions: 6-mm disks, 20 μg test compound
Description: as §1, §2, §3, §4

S. simulans (ATCC 11631) = assay: Kirby-Bauer agar disk diffusion; type: cell-based, Staphylococcus simulans; conditions: 6-mm disks, 20 μg test compound
Description: as §1, §2, §3, §4

[3] = tested on: S. saprophyticus (ATCC 3552); assay: Kirby-Bauer agar disk diffusion; type: cell-based, Staphylococcus saprophyticus; conditions: 6-mm disks, 20 μg test compound
Description: as §1, §2, §3, §4

N. gonorrhoeae = assay: Kirby-Bauer agar disk diffusion; type: cell-based, Neisseria gonorrhoeae; conditions: Table 1; 6-mm disks, 20 μg test compound, 24 h, triplicate; β-lactamase positive
Description: as §1, §2

[4] = tested on: Staphylococcus strains including MRSA; assay: antibacterial activity screening, results stated in words; type: cell-based, Staphylococcus aureus; conditions: Example 2; all microorganisms tested
Text: However, the N-alkylthio substituent is required, since reduction to the N—H analogue completely destroys the biological activity. […]
as §3
With the lactam of FIG. 6A serving as a lead structure, other C4-unsaturated derivatives (FIGS. 6B-6E) and C4-saturated analogues (FIGS. 6F-6H), were examined all of which also have activity against Staphylococcus strains including MRSA.
as §7

| SMILES | zone of growth inhibition, average diameter (MRSA USF652; Table 1, 24 h, triplicate) [mm] | zone of growth inhibition, average diameter (MRSA USF653; Table 1, 24 h, triplicate) [mm] | zone of growth inhibition, average diameter (MRSA USF654; Table 1, 24 h, triplicate) [mm] | zone of growth inhibition, average diameter (MRSA USF655; Table 1, 24 h, triplicate) [mm] | zone of growth inhibition, average diameter (MRSA USF656; Table 1, 24 h, triplicate) [mm] | zone of growth inhibition, average diameter (MRSA USF657; Table 1, 24 h, triplicate) [mm] | zone of growth inhibition, average diameter (MRSA USF658; Table 1, 24 h, triplicate) [mm] | zone of growth inhibition, average diameter (MRSA USF659; Table 1, 24 h, triplicate) [mm] | zone of growth inhibition, average diameter (Micrococcus luteus; Table 1, 24 h, triplicate) [mm] | zone of growth inhibition, average diameter ([1]; Table 1, 24 h, triplicate) [mm] | zone of growth inhibition, average diameter ([2]; Table 1, 24 h, triplicate) [mm] | zone of growth inhibition, average diameter (S. simulans (ATCC 11631); Table 1, 24 h, triplicate) [mm] | zone of growth inhibition, average diameter ([3]; Table 1, 24 h, triplicate) [mm] | zone of growth inhibition, average diameter (N. gonorrhoeae) [mm] | also measured |
| --- | --- | --- | --- | --- | --- | --- | --- | --- | --- | --- | --- | --- | --- | --- | --- |
| COC1C(=O)N(SC)C1c1cccc([N+](=O)[O-])c1 (racemic) [Lactam E] | 17 | 22 | 16 | 14 | 18 | 18 | 17 | 11 | 22 | 15 | 20 | 13 | 15 | 12 |  |
| COC(=O)c1ccc(C2C(OC)C(=O)N2SC)cc1 (racemic) [Lactam F] | 12 | 14 | 12 | 14 | 11 | 12 | 12 | 13 | 20 | 12 | 12 | 0 | 8 | 11 |  |
| COC1C(=O)N(SC)C1c1ccc(C#N)cc1 (racemic) [Lactam G] | 14 | 16 | 12 | 12 | 13 | 10 | 12 | 12 | 21 | 14 | 20 | 0 | 14 | 12 |  |
| COC1C(=O)N(SC)C1c1ccccc1C (racemic) [Lactam H] | 23 | 27 | 23 | 23 | 25 | 23 | 22 | 20 | 21 | 23 | 25 | 14 | 15 | 12 |  |
| COC1C(=O)N2SC(c3ccccc3)=C(I)C12 (stereo not shown) [FIG. 2D] |  |  |  |  |  |  |  |  |  |  |  |  |  |  | zone of growth inhibition, average diameter (MRSA USF652; Table 3, 24 hours): 0 mm; zone of growth inhibition, average diameter (MRSA USF653; Table 3, 24 hours): 0 mm; zone of growth inhibition, average diameter (MRSA USF654; Table 3, 24 hours): 0 mm; zone of growth inhibition, average diameter (MRSA USF655; Table 3, 24 hours): 0 mm; zone of growth inhibition, average diameter (MRSA USF656; Table 3, 24 hours): 0 mm; zone of growth inhibition, average diameter (MRSA USF657; Table 3, 24 hours): 0 mm; zone of growth inhibition, average diameter (MRSA USF658; Table 3, 24 hours): 0 mm; zone of growth inhibition, average diameter (MRSA USF659; Table 3, 24 hours): 0 mm; zone of growth inhibition, average diameter (Micrococcus luteus; Table 3, 24 hours): 0 mm; zone of growth inhibition, average diameter ([1]; Table 3, 24 hours): 0 mm; zone of growth inhibition, average diameter ([2]; Table 3, 24 hours): 0 mm; zone of growth inhibition, average diameter (S. simulans (ATCC 11631); Table 3, 24 hours): 0 mm; zone of growth inhibition, average diameter ([3]; Table 3, 24 hours): 0 mm; antimicrobial activity, in words [4]: no antimicrobial activity |
